Publication PMC5206724, “Insensitivity to pain induced by a potent selective closed-state Nav1.7 inhibitor” (Scientific Reports, 2017)
Where two headings read alike, the source gives them in different places.

Legend:
hNav1.7 [1] = target: T1, hNav1.7 (Homo sapiens, UniProt Q15858); test: cell-based; conditions: QPatch; read-out: Fitted Emax hNav1.7
T1 construct: host or cells: HEK293

hNav1.1 [2] = target: T2, hNav1.1 (Homo sapiens, UniProt P35498); test: cell-based; conditions: QPatch; read-out: Fitted Emax hNav1.1
hNav1.2 [3] = target: T3, hNav1.2 (Homo sapiens, UniProt Q99250); test: cell-based; conditions: QPatch; read-out: Fitted Emax hNav1.2
hNav1.4 [4] = target: T4, hNav1.4 (Homo sapiens, UniProt P35499); test: cell-based; conditions: QPatch; read-out: Fitted Emax hNav1.4
hNav1.6 [5] = target: T5, hNav1.6 (Homo sapiens, UniProt Q9UQD0); test: cell-based; conditions: QPatch; read-out: Fitted Emax hNav1.6
T5 sequence (Q9UQD0 whole entry): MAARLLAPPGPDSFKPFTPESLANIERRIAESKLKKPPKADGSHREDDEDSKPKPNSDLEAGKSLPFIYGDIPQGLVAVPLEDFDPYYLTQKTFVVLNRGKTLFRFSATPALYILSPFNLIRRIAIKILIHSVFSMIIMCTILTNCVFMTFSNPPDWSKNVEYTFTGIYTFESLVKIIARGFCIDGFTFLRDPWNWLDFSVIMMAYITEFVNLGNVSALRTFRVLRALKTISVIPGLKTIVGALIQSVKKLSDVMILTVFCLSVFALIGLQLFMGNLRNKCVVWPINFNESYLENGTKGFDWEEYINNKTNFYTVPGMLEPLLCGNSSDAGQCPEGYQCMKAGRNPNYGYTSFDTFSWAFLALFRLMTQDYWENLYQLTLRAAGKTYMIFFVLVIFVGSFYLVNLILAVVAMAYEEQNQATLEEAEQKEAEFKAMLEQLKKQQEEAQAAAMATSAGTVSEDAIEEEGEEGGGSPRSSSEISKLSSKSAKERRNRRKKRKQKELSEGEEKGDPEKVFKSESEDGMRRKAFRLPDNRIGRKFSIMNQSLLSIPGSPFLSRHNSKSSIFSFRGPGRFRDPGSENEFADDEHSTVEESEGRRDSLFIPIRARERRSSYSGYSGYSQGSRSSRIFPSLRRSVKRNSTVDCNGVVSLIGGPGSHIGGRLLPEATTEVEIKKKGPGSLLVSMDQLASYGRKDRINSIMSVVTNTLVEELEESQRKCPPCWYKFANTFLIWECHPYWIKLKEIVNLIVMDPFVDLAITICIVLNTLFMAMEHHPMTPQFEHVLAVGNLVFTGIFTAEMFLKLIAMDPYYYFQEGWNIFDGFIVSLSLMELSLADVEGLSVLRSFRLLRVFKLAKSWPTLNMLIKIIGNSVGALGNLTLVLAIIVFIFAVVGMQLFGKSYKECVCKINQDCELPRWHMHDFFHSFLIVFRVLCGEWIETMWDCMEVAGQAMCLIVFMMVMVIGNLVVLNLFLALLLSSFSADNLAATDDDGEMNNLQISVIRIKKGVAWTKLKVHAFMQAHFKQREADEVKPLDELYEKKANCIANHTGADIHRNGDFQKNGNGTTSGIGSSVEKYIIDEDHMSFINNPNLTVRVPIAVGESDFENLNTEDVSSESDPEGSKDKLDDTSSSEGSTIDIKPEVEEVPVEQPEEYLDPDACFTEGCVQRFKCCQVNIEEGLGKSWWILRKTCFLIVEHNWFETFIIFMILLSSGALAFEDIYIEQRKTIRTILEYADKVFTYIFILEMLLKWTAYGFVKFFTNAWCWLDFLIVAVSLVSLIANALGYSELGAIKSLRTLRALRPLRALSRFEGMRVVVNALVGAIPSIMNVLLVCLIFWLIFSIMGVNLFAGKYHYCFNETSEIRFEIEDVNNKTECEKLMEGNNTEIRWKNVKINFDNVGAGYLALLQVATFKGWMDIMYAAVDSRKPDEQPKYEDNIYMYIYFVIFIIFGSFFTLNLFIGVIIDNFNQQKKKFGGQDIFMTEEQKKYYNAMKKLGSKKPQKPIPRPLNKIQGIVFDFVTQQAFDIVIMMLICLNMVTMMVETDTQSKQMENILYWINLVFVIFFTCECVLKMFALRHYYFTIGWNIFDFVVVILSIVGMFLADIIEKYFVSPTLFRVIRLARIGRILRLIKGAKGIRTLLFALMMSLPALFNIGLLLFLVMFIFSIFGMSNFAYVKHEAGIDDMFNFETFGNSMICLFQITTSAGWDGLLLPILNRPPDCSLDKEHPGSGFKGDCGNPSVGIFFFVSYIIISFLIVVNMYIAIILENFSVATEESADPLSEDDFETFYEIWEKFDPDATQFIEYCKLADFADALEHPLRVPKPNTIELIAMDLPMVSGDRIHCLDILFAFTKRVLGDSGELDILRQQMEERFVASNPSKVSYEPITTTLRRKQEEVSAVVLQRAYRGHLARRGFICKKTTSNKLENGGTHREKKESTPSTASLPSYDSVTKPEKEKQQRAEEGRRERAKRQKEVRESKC

hNav1.7 [6] = target: T1, hNav1.7; test: cell-based; conditions: manual patch clamp; read-out: Fitted Emax hNav1.7
hNav1.1 [7] = target: T2, hNav1.1; test: cell-based; conditions: manual patch clamp
hNav1.2 [8] = target: T3, hNav1.2; test: cell-based; conditions: manual patch clamp; read-out: Fitted Emax hNav1.2
hNav1.4 [9] = target: T4, hNav1.4; test: cell-based; conditions: manual patch clamp; read-out: Fitted Emax hNav1.4
hNav1.6 [10] = target: T5, hNav1.6; test: cell-based; conditions: manual patch clamp
[11] = for mentation BAR (bright, alert and responsive) / normal corneal reflex / normal pinna reflex / normal placing stepping / scratching: 1.4 mg/100 μl perineural
Source text: Rats ~250–300 g were placed under Isoflurane anesthesia (4% for induction, 2% for maintenance). A single hip and proximal hind-leg area were shaved and the injection area prepped with alternating applications of chlorhexidine 2% soln. and isopropyl alcohol 70%. A pelvic notch just distal to the greater trochanter was located with palpation and a starter hole was made through the dermis using a 20G hypodermic needle. A 22G nerve stimulating injection needle (ProBloc II, cat#HN3S-40, Halyard Health) connected to a peripheral nerve stimulation device (EZstim II model ES400, Life-Tech, Inc.) was placed into the starter hole. The nerve stimulator was set to 0.7 mA and the injection needle was gently advanced in a line parallel to the femur until localized dorsal or plantar flexion of the foot was observed. Generalized muscle twitching involving primary twitching on the quadriceps muscle was considered a negative response and the needle was carefully re-positioned until the appropriate localized foot flicking was observed. […] The device was increased back to 0.2 mA and if twitching was still observed, the 100 μL injection was given.

[12] = 0.5 μg/h IT infusion; in words
Method: Efficacy was assessed in the hotplate and tail flick tests at various time points before pump implantation, during infusion and after discharge of the pumps.
All peptides were formulated in DPBS (no Ca^2+ and Mg^2+) and stored at 4 °C until use. For bolus administration, 10 μl of compound solution or vehicle were injected via the IT catheter followed by 10 μl saline flush. […] The osmotic pump was implanted subcutaneously above the scapula. Animals were excluded from behavioral studies if any motor dysfunction was noted following IT injection, if baseline thresholds were >90% or <10% of the cut-off value in the tail flick, hotplate and Hargreaves test, if there was significant leak (>20 μl) while injecting formalin into the paw or any malfunction of the metal bands or formalin apparatus. Intrathecal compound was administered 15 min–1 h before commencing behavioral testing. Intrathecal-cannulated rats were trained on the behavioral apparatus for at least two days before baseline withdrawal latencies were taken. All behavioral tests were conducted by an investigator blinded to group and treatment.

[13] = 0.5 μg/10 μl IT, 2 h post dose (1 h post formalin)
[14] = 2.5 μg/10 μl IT, 2 h post dose (1 h post formalin)
[15] = 2.5 μg/10 μl IT, first 2 animals not assessed

T1 sequence (Q15858 whole entry): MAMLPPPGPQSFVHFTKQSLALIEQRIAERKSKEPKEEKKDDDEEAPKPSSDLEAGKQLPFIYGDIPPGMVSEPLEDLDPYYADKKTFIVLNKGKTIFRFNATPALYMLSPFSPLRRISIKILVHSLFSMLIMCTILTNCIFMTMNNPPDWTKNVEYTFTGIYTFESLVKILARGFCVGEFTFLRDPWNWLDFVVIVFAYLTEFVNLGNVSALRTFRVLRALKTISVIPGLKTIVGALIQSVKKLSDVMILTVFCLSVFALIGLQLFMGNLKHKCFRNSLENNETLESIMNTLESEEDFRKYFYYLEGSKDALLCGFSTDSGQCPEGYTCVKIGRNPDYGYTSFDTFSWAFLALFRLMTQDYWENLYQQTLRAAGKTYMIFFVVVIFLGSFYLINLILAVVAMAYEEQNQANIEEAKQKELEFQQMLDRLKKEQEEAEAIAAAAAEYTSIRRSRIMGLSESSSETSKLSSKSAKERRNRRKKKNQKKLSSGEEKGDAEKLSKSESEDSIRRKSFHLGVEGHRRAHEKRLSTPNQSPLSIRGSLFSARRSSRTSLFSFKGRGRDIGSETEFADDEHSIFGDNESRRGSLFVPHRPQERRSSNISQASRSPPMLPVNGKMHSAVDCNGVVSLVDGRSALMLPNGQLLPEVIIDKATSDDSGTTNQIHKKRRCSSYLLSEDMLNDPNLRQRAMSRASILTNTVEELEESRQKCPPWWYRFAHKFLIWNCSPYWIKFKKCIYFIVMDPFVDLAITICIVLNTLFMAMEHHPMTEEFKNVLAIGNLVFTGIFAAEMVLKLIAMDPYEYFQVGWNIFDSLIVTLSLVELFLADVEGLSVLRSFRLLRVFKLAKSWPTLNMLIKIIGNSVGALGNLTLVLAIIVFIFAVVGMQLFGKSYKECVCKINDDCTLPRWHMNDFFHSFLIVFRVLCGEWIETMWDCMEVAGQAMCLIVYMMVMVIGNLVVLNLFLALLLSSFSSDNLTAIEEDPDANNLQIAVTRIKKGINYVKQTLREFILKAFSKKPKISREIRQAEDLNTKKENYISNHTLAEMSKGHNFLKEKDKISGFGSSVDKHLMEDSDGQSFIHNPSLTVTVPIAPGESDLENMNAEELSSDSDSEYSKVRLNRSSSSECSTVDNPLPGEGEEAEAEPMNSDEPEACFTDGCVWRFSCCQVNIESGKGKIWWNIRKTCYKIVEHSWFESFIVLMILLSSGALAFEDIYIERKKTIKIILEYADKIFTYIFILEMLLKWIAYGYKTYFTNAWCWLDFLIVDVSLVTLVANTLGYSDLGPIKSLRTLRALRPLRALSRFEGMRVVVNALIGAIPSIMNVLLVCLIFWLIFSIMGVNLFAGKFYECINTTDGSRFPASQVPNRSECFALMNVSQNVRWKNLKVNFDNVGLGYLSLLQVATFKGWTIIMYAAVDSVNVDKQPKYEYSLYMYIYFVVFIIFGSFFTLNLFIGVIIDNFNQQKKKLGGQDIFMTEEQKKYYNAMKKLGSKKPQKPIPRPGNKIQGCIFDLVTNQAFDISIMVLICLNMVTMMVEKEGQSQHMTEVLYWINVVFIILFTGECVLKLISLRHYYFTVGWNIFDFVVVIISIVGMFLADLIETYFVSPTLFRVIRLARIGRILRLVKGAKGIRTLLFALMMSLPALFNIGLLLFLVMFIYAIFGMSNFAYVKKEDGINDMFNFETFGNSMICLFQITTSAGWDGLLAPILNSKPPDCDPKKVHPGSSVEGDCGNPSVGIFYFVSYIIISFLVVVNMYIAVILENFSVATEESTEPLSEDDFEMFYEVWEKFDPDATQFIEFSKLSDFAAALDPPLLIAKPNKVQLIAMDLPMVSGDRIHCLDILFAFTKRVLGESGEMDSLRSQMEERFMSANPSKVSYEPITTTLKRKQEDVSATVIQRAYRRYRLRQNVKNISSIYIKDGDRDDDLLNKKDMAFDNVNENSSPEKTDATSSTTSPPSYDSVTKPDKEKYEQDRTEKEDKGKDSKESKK

CSCC[C@@H]1NC(=O)CNC(=O)[C@H](CCC(=O)O)NC(=O)[C@@H]2CSSC[C@H](NC(=O)[C@H](Cc3ccc(O)cc3)NC(=O)[C@@H]3CCCN3C(=O)CN)C(=O)N[C@@H](CCC(N)=O)C(=O)N[C@@H](CCCCN)C(=O)N[C@@H](Cc3c[nH]c4ccccc34)C(=O)N[C@@H](CCSC)C(=O)N[C@@H](CCC(N)=O)C(=O)N[C@@H]([C@@H](C)O)C(=O)N[C@H]3CSSC[C@H](NC(=O)[C@H](C(C)C)NC1=O)C(=O)N[C@@H](CCCNC(=N)N)C(=O)N[C@@H](CC(C)C)C(=O)N[C@@H](Cc1c[nH]c4ccccc14)C(=O)N[C@H](C(=O)N[C@@H](CCCCN)C(=O)N[C@@H](CCCCN)C(=O)N[C@@H](CCCCN)C(=O)N[C@@H](CC(C)C)C(=O)N[C@@H](CC(C)C)C(=O)O)CSSC[C@H](NC(=O)[C@H](CCCCN)NC(=O)[C@H](CCCNC(=N)N)NC(=O)[C@H](CCC(=O)O)NC(=O)[C@H](CO)NC(=O)[C@H](CC(=O)O)NC3=O)C(=O)N2 [JNJ63955918]
Emax (hNav1.7 [1]): 79.1 ± 3.4% | Emax (hNav1.1 [2]): 100% | Emax (hNav1.2 [3]): 27.6 ± 7.3% | Emax (hNav1.4 [4]): 100% | Emax (hNav1.6 [5]): 100% | Emax (hNav1.7 [6]): 94.8 ± 3.3% | IC50 (hNav1.1 [7]; holding −120 mV, test −10 mV, 0.1% BSA, 22–24 °C, read-out: pIC50 hNav1.1 (converted)): 10 µM | Emax (hNav1.1 [7]; read-out: Fitted Emax hNav1.1): 100% | Emax (hNav1.2 [8]): 50 ± 18.5% | Emax (hNav1.4 [9]): 100% | IC50 (hNav1.6 [10]; holding −120 mV, test −10 mV, 0.1% BSA, 22–24 °C, read-out: pIC50 hNav1.6 (converted)): 1 µM | Emax (hNav1.6 [10]; read-out: Fitted Emax hNav1.6): 100% | scratching / behavioral abnormalities ([11]; 1.4 mg/100 μl peri-sciatic, in words): Scratching was observed in some animals but no other behavioral abnormalities were noted | mentation BAR (bright, alert and responsive) ([11]; 15 min post dose): 7/9 | normal corneal reflex ([11]; 15 min post dose): 9/9 | normal pinna reflex ([11]; 15 min post dose): 9/9 | normal placing stepping ([11]; 15 min post dose): 9/9 | scratching ([11]; 15 min post dose): 0/9 | mentation BAR (bright, alert and responsive) ([11]; 30 min post dose): 4/9 | normal corneal reflex ([11]; 30 min post dose): 9/9 | normal pinna reflex ([11]; 30 min post dose): 9/9 | normal placing stepping ([11]; 30 min post dose): 9/9 | scratching ([11]; 30 min post dose): 1/9 | mentation BAR (bright, alert and responsive) ([11]; 60 min post dose): 5/9 | normal corneal reflex ([11]; 60 min post dose): 9/9 | normal pinna reflex ([11]; 60 min post dose): 9/9 | normal placing stepping ([11]; 60 min post dose): 9/9 | scratching ([11]; 60 min post dose): 2/9 | mentation BAR (bright, alert and responsive) ([11]; 120 min post dose): 6/9 | normal corneal reflex ([11]; 120 min post dose): 9/9 | normal pinna reflex ([11]; 120 min post dose): 9/9 | normal placing stepping ([11]; 120 min post dose): 9/9 | scratching ([11]; 120 min post dose): 2/9 | mentation BAR (bright, alert and responsive) ([11]; 240 min post dose): 8/9 | normal corneal reflex ([11]; 240 min post dose): 9/9 | normal pinna reflex ([11]; 240 min post dose): 9/9 | normal placing stepping ([11]; 240 min post dose): 9/9 | scratching ([11]; 240 min post dose): 1/9 | mentation BAR (bright, alert and responsive) ([11]; 24 h post dose): 9/9 | normal corneal reflex ([11]; 24 h post dose): 9/9 | normal pinna reflex ([11]; 24 h post dose): 9/9 | normal placing stepping ([11]; 24 h post dose): 9/9 | gross motor deficits ([11]; 2.5 mg/100 μl peri-sciatic, in words): absence of any gross motor deficits | tolerability, peri-sciatic ([11]; up to 2.5 mg/100 μl, in words): well tolerated | body weight gain vs vehicle [12]: gained weight at the same rate | motor or other behavioral abnormalities [12]: No motor or other behavioral abnormalities were observed | scabbing [12]: Some scabbing on the face, shoulders, hind limbs and tail | gross motor normal (0.5 μg/10 μl IT, 1 h post dose): 6/6 | normal proprioception (0.5 μg/10 μl IT, 1 h post dose): 6/6 | gross motor normal [13]: 6/6 | normal proprioception [13]: 6/6 | abrasions at euthanasia (0.5 μg/10 μl IT, first 2 animals not assessed): 0/4 | gross motor normal (2.5 μg/10 μl IT, 1 h post dose): 6/6 | normal proprioception (2.5 μg/10 μl IT, 1 h post dose): 6/6 | gross motor normal [14]: 6/6 | normal proprioception [14]: 6/6 | excessive scratching leading to upper body skin abrasion (animals affected) (2.5 μg/10 μl IT, blinded repeat study): 2 of 4 | abrasions at euthanasia [15]: 2/4 | scratching [15]: 2/4 | duration of muscle weakness (7.5 μg/10 μl IT): < 1 h | incidence of mild reversible muscle weakness (7.5 μg/10 μl IT): approximately 50% | scabbing (IT dose range finding, in words): Scabbing on face/neck/shoulders was observed in some rats | motor impairment (IT doses above 7.5 μg/10 μl, in words): Dose related motor impairment became more obvious and the duration of the effects was longer | tolerability (IT doses up to 5 μg/10 μl, in words): well tolerated with no detectable abnormal behaviors | in-vivo safety window (rat, in vivo): 7–16 fold | therapeutic margin vs ziconotide (rat, in vivo): greater than that of ziconotide | maximum tolerated dose (MTD), IT (rat, intrathecal): 5 μg/10 μl | lesions to the face and shoulders (rats, in words): often noticed
